Assay results published in patent publication US9643980B2, “Benzoxazepin oxazolidinone compounds and methods of use” (Genentech, Inc., priority 2015, dated 2017).
Where two headings read alike, the source gives them in different places.

How the values were obtained:
PI3Kβ = PI3Kβ (Homo sapiens, UniProt P42338); assay: PI3K binding assay (lipid kinase reaction, ADP-Glo), PI3K beta; type: biochemical; details: Table 2A; first value of cell (ADP-Glo, Example 901)
Method: (§1) Reactions are carried out using the following conditions for each PI3K isoform as in Table 5.
(§2) All reactions are carried out at room temperature. […] The reaction is started by the addition of 2 μL ATP/MgCl2. The kinase reaction buffer contains 50 mM HEPES, 50 mM NaCl 3 mM MgCl2, 0.01% BSA, 1% DMSO, and enzyme and substrate concentrations as indicated in the above table. The reaction is stopped by the addition of 10 μL ADP-Glo reagent. Plates are read in a Perkin Elmer Envision system using luminescence mode. 10 point dose response curves are generated for each test compound. Ki values for each compound are determined using the Morrison Equation.

P-PRAS40 SW48(H1047R) = assay: Inhibition of P-PRAS40 in SW48 isogenic cells, PI3Kα mutant H1047R; type: cell-based; details: for EC50: Homo sapiens
Method: (§3) All statistics were performed using KaleidaGraph Software (version 4.1.3). A Student t-Test was performed using unpaired data with equal variance to compare activity against mutant cells and wild-type cells. P<0.05 is considered to be significant.
(§4) The following assays are intended for determining the cellular potency and mutant selectivity of small molecule PI3Kα inhibitors. […] Mutant selectivity of PI3Kα inhibitors is determined by EC50 potency ratios in the WT vs. E545K cell lines and WT vs. H1047R cell lines.
(§5) The three cell lines (WT, E545K, and H1047R) are plated and assayed in parallel. The following day, test compounds are serially diluted in dimethyl sulfoxide (DMSO) and added to cells (final DMSO concentration 0.5%). […] Cell lysates are added to assay plates pre-coated with antibodies against phosphorylated PRAS40. Phosphorylated PRAS40 in samples are allowed to bind to the capture antibodies overnight at 4° C. The detection antibody (anti-total PRAS40, labeled with an electrochemiluminescent SULFO-TAG) is added to the bound lysate and incubated for 1 hour at room temperature. The MSD Read Buffer is added such that when a voltage is applied to the plate electrodes, the labels bound to the electrode surface emit light. The MSD Sector Instrument measures the intensity of the light, and quantitatively measures the amount of phosphor-PRAS40 in the sample. Percent inhibition of PRAS40 phosphorylation by varying concentrations of test compounds is calculated relative to untreated controls. EC50 values are calculated using the 4 parameter logistic nonlinear regression dose-response model.

PI3Kγ = PI3Kγ (Homo sapiens, UniProt P48736); assay: PI3K binding assay (lipid kinase reaction, ADP-Glo), PI3K gamma; type: biochemical; details: Table 2A; first value of cell (ADP-Glo, Example 901)
Sequence of PI3Kγ (P48736 whole entry): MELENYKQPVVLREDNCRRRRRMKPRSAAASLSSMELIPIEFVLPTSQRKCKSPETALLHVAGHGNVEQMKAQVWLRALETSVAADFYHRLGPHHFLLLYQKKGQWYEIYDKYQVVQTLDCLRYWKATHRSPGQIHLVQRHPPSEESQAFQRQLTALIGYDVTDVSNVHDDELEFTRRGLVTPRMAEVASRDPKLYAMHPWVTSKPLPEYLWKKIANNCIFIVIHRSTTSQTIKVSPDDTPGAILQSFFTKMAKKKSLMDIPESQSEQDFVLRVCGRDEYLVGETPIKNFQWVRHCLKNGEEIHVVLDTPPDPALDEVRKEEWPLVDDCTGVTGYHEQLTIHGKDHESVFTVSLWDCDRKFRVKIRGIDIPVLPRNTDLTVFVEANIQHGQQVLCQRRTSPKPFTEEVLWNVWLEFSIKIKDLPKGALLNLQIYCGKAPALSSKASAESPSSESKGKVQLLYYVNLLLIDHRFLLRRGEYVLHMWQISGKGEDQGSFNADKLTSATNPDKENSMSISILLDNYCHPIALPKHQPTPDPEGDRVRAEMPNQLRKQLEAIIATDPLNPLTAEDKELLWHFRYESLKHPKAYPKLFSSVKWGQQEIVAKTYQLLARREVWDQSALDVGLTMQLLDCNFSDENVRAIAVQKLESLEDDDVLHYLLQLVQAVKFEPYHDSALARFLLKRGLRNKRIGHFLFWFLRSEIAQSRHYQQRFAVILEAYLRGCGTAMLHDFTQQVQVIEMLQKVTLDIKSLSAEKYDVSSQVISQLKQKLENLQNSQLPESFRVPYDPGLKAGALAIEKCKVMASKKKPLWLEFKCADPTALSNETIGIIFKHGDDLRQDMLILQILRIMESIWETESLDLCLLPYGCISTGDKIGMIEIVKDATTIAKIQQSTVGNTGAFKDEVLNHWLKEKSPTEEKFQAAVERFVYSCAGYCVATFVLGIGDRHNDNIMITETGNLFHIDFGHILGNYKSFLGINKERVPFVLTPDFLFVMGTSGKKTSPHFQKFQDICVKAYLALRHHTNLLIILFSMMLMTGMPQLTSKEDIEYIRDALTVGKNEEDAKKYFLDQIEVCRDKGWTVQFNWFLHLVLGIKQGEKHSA
Method: as §1, §2

P-PRAS40 SW48(E545K) = assay: Inhibition of P-PRAS40 in SW48 isogenic cells, PI3Kα mutant E545K; type: cell-based; details: for EC50: Homo sapiens
Method: as §3, §4, §5

PI3Kδ = PI3Kδ (Homo sapiens, UniProt O00329); assay: PI3K binding assay (lipid kinase reaction, ADP-Glo), PI3K delta; type: biochemical
Sequence of PI3Kδ (O00329 whole entry): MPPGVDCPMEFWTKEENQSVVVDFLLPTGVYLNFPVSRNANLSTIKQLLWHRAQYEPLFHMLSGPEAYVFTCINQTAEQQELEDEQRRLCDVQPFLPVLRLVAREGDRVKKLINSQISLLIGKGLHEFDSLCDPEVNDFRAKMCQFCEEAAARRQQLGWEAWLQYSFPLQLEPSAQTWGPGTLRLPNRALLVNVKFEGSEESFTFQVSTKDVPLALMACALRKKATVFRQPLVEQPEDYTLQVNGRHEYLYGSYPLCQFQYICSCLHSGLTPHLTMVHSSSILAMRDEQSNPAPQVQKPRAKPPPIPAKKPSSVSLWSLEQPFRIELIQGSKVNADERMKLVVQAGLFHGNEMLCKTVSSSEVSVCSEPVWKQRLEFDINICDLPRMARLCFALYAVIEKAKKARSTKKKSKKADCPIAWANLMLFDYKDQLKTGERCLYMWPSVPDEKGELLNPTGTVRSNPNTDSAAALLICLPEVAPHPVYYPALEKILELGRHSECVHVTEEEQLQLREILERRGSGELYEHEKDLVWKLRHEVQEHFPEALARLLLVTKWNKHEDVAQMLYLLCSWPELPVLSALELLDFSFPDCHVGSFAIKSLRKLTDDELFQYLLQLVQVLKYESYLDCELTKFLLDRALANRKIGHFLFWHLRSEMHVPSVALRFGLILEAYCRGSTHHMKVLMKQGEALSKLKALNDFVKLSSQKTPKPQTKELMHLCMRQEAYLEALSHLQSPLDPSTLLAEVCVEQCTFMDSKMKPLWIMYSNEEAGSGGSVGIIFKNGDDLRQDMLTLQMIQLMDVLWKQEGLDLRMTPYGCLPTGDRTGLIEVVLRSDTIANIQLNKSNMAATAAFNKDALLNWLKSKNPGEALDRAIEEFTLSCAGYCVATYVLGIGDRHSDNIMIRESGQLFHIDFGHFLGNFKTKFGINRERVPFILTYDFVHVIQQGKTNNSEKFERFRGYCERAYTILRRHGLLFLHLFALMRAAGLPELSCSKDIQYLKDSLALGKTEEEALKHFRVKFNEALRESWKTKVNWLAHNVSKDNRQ
Sequence of PI3Kδ (P27986 whole entry partner): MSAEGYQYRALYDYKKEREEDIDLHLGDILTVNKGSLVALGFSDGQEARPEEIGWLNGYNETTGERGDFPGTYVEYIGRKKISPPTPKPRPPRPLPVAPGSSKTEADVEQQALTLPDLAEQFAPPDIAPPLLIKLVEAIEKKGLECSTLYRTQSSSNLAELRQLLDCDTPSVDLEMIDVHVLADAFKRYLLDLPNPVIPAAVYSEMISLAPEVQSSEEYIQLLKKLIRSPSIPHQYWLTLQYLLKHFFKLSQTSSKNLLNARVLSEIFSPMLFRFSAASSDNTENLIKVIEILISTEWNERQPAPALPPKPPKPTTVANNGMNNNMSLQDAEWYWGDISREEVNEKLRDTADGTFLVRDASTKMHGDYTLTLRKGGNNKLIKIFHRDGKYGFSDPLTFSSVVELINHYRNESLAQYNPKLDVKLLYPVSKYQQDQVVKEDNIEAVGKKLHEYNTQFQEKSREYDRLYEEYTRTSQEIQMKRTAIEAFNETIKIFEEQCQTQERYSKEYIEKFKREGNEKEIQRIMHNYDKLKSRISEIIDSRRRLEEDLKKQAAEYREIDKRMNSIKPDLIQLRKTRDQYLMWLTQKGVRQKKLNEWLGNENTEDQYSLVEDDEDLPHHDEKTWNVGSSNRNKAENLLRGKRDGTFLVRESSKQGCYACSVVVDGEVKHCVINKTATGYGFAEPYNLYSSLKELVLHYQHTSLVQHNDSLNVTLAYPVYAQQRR
Method: as §1, §2

PI3Kα = PI3Kα (Homo sapiens, UniProt P42336); assay: PI3K binding assay (lipid kinase reaction, ADP-Glo), PI3K alpha; type: biochemical
Sequence of PI3Kα (P42336 whole entry): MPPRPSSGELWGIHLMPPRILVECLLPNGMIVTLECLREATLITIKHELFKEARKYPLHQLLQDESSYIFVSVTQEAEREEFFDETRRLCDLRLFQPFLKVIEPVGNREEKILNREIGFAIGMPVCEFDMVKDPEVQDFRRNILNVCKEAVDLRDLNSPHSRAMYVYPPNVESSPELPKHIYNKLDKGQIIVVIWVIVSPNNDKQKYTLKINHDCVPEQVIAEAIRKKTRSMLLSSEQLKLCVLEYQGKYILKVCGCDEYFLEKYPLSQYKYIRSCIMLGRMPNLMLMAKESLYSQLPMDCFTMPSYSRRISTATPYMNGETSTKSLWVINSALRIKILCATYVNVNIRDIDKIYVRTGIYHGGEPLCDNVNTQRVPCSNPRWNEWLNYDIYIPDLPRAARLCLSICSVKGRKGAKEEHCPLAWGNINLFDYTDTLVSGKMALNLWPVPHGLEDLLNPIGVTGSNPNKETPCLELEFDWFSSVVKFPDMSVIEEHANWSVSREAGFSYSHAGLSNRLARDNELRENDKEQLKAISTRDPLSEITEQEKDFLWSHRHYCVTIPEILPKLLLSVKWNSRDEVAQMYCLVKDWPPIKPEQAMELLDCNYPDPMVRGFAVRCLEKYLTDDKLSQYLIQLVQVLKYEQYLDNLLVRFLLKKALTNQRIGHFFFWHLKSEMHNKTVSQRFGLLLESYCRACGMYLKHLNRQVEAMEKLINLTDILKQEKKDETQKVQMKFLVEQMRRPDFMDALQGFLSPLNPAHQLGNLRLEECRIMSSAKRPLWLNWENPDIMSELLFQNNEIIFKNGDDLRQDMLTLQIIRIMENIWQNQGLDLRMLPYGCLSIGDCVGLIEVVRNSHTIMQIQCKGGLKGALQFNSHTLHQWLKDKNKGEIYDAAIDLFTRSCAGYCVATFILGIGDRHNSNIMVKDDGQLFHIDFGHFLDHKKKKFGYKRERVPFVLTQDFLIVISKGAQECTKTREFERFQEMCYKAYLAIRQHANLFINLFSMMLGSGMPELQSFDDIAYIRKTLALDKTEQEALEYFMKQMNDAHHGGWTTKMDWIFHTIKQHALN
Sequence of PI3Kα (P27986 whole entry partner): as the sequence (P27986 whole entry partner) above
Method: as §1, §2

P-PRAS40 SW48(parental) = assay: Inhibition of P-PRAS40 in SW48 isogenic cells, PI3Kα wild-type (parental); details: Homo sapiens, SW48, 24 h
Method: The three cell lines (WT, E545K, and H1047R) are plated and assayed in parallel. The following day, test compounds are serially diluted in dimethyl sulfoxide (DMSO) and added to cells (final DMSO concentration 0.5%). Cells are then incubated for 24 hours at 37° C. and 5% CO2. […] Cell lysates are added to assay plates pre-coated with antibodies against phosphorylated PRAS40. Phosphorylated PRAS40 in samples are allowed to bind to the capture antibodies overnight at 4° C. The detection antibody (anti-total PRAS40, labeled with an electrochemiluminescent SULFO-TAG) is added to the bound lysate and incubated for 1 hour at room temperature. The MSD Read Buffer is added such that when a voltage is applied to the plate electrodes, the labels bound to the electrode surface emit light. The MSD Sector Instrument measures the intensity of the light, and quantitatively measures the amount of phosphor-PRAS40 in the sample. Percent inhibition of PRAS40 phosphorylation by varying concentrations of test compounds is calculated relative to untreated controls. EC50 values are calculated using the 4 parameter logistic nonlinear regression dose-response model.

[1] = test system: KPL4 cells (PI3Kα mutant H1047R); assay: In vitro cell viability assay (Cell Titer-Glo), KPL4; details: KPL4, 96 h, read-out: KPL4 antiproliferative EC50 (μM)
Method: Cells were seeded (1,500 per well) in 384-well plates for 16 h. On day 2, nine serial 1:3 compound dilutions were made in DMSO in a 96-well plate. The compounds were then further diluted into growth media using a Rapidplate robot (Zymark Corp.). The diluted compounds were then added to quadruplicate wells in the 384-well cell plates and incubated at 37° C. and 5% CO2. After 4 d, relative numbers of viable cells were measured by luminescence using Cell Titer-Glo (Promega) according to the manufacturer's instructions and read on a Wallac Multilabel Reader (Perkin-Elmer). EC50 values were calculated using Prism 6.0 software (GraphPad).

[2] = Table 3A, EC50 potency ratio, p value (Student t-Test) given
[3] = Table 2B comparator compounds, first value of cell (ADP-Glo)
[4] = read-out: P-PRAS40 SW48(parental) EC50 (μM)
[5] = SW48, Table 3B comparator compounds, 24 hours of compound treatment, read-out: P-PRAS40 SW48(H1047R) EC50
[6] = SW48, Table 3B comparator compounds, 24 hours of compound treatment, read-out: P-PRAS40 SW48(E545K) EC50
[7] = Table 2B comparator compounds, first value of cell (ADP-Glo), read-out: PI3Kα Ki

Sequence of PI3Kβ (P42338 whole entry, canonical isoform): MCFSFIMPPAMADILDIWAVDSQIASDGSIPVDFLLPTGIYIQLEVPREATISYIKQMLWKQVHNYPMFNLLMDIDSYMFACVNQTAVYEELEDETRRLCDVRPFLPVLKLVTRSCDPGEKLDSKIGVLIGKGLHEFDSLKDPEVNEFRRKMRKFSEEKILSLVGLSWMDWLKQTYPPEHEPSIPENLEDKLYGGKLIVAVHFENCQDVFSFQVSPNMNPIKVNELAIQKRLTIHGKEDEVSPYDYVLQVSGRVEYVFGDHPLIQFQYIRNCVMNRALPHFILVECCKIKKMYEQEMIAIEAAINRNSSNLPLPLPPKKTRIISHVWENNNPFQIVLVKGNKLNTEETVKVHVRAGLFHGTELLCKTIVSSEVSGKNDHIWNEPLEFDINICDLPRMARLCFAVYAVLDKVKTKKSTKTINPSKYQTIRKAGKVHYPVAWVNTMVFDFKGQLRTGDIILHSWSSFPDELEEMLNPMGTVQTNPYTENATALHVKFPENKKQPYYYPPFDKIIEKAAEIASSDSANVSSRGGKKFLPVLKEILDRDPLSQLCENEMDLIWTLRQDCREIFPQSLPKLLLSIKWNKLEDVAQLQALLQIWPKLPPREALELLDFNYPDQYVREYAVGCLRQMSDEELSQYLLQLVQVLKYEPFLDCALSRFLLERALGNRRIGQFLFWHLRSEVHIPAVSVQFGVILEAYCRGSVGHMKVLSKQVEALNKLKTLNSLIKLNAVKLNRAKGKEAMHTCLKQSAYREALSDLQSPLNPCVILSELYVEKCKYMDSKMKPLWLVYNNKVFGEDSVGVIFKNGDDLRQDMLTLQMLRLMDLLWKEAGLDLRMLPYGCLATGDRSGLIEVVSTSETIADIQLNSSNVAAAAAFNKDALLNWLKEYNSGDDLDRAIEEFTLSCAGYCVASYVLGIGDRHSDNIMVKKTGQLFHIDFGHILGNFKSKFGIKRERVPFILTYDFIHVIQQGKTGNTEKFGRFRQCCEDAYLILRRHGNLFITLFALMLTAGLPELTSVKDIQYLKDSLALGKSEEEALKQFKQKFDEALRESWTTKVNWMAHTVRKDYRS
Sequence of PI3Kβ (P27986 whole entry partner, canonical isoform): as the sequence (P27986 whole entry partner) above

## C[C@H](Oc1ccc2c(c1)OCCn1cc(N3C(=O)OC[C@H]3CF)nc1-2)C(N)=O [Compound 109, (S)-2-((2-((S)-4-(Fluoromethyl)-2-oxooxazolidin-3-yl)-5,6-dihydrobenzo[f]imidazo[1,2-d][1,4]oxazepin-9-yl)oxy)propanamide]
PI3Kβ
  Ki: 376 nM
P-PRAS40 SW48(H1047R); SW48, Table 3A, 24 hours of compound treatment, geometric mean, read-out: P-PRAS40 SW48(H1047R) EC50
  EC50: 0.028 µM
P-PRAS40 SW48(H1047R); [2]
  Fold Selectivity for SW48(H1047R) vs. SW48(parental): 2.6 (p < 0.001)
PI3Kγ
  Ki: 126 nM
P-PRAS40 SW48(E545K); SW48, Table 3A, 24 hours of compound treatment, geometric mean, read-out: P-PRAS40 SW48(E545K) EC50
  EC50: 0.0332 µM
P-PRAS40 SW48(E545K); [2]
  Fold Selectivity for SW48(E545K) vs. SW48(parental): 2.2 (p = 0.002)
PI3Kδ; Table 2A, first value of cell (ADP-Glo, Example 901)
  Ki: 30.3 nM
PI3Kα
  Selectivity for PI3Kα vs. PI3K-β: 379
  Selectivity for PI3Kα vs. PI3Kγ: 127
  Selectivity for PI3Kα vs. PI3Kδ: 31
PI3Kα; Table 2A, first value of cell (ADP-Glo, Example 901), read-out: PI3Kα Ki
  Ki: 0.993 nM
P-PRAS40 SW48(parental); read-out: P-PRAS40 SW48(parental) EC50 (nM)
  EC50: 74 nM

## CC(C)n1ncnc1-c1cn2c(n1)-c1ccc(N3CCC[C@H]3C(N)=O)cc1OCC2 [Compound 375, reference compound]
P-PRAS40 SW48(H1047R)
  Fold Selectivity for SW48(H1047R) vs. SW48(parental): 1.5 (p = 0.20)
P-PRAS40 SW48(H1047R); SW48, 24 h, read-out: P-PRAS40 SW48(H1047R) EC50 (μM)
  EC50: 0.001 µM
P-PRAS40 SW48(E545K)
  Fold Selectivity for SW48(E545K) vs. SW48(parental): 1.4 (p = 0.23)
P-PRAS40 SW48(E545K); SW48, 24 h, read-out: P-PRAS40 SW48(E545K) EC50 (μM)
  EC50: 0.0011 µM
PI3Kδ; [3]
  Ki: 0.354 nM
PI3Kα
  Ki: 0.016 nM
P-PRAS40 SW48(parental); [4]
  EC50: 1.6 nM

## CC(C)n1ncnc1-c1cn2c(n1)-c1ccc(O[C@@H](C)C(N)=O)cc1OCC2 [Compound 436, reference compound]
[1]
  EC50: 0.05 µM
PI3Kδ; [3]
  Ki: 7.72 nM

## NC(=O)[C@@H]1CCCN1c1ccc2c(c1)OCCn1cc(-c3ncnn3CC(F)(F)F)nc1-2 [Compound 469, reference compound]
P-PRAS40 SW48(H1047R); [5]
  EC50: 0.0009 µM
P-PRAS40 SW48(H1047R); Table 3B, EC50 potency ratio
  Fold Selectivity for SW48(H1047R) vs. SW48(parental): 1.6 (p = 0.11)
P-PRAS40 SW48(E545K); [6]
  EC50: 0.0008 µM
P-PRAS40 SW48(E545K); Table 3B, EC50 potency ratio
  Fold Selectivity for SW48(E545K) vs. SW48(parental): 1.8 (p = 0.04)
PI3Kδ; [3]
  Ki: 0.422 nM
PI3Kα; [7]
  Ki: 0.025 nM
PI3Kα; Table 2B comparator compounds, selectivity ratio (fold)
  Selectivity for PI3Kα vs. PI3Kδ: 17
P-PRAS40 SW48(parental); [4]
  EC50: 1 nM

## C[C@H](Oc1ccc2c(c1)OCCn1cc(-c3ncnn3CC(F)(F)F)nc1-2)C(N)=O [Compound 486, reference compound]
P-PRAS40 SW48(H1047R); [5]
  EC50: 0.0059 µM
P-PRAS40 SW48(H1047R); Table 3B, EC50 potency ratio
  Fold Selectivity for SW48(H1047R) vs. SW48(parental): 1.0 (p = 0.74)
P-PRAS40 SW48(E545K); [6]
  EC50: 0.0055 µM
P-PRAS40 SW48(E545K); Table 3B, EC50 potency ratio
  Fold Selectivity for SW48(E545K) vs. SW48(parental): 1.1 (p = 0.44)
PI3Kδ; [3]
  Ki: 2.5 nM
PI3Kα; [7]
  Ki: 0.186 nM
P-PRAS40 SW48(parental); [4]
  EC50: 6.2 nM

## C[C@H](Oc1ccc2c(c1)OCCn1cc(-c3ncnn3C)nc1-2)C(N)=O [Compound 540, reference compound]
P-PRAS40 SW48(H1047R); [5]
  EC50: 0.184 µM
P-PRAS40 SW48(E545K); [6]
  EC50: 0.169 µM
PI3Kδ; [3]
  Ki: 24.1 nM
P-PRAS40 SW48(parental); [4]
  EC50: 381 nM

## CCn1ncnc1-c1cn2c(n1)-c1ccc(O[C@@H](C)C(N)=O)cc1OCC2 [Compound 544, reference compound]
P-PRAS40 SW48(H1047R); [5]
  EC50: 0.018 µM
P-PRAS40 SW48(E545K); [6]
  EC50: 0.0159 µM
PI3Kδ; [3]
  Ki: 11.3 nM
P-PRAS40 SW48(parental); [4]
  EC50: 47.7 nM
